# Source: US8933099B2, “Monocyclic pyridine derivative” (Eisai R&D Management Co., Ltd., priority 2013, dated 2015)
# How the values were obtained:
# [1] = tested on: human stomach cancer cell line SNU-16 (FGFR2 gene amplification); assay: SNU-16 growth inhibition assay; type: cell-based; details: Homo sapiens, SNU-16, 72 h; cell growth, 3 days, Cell Counting Kit-8; read-out: SNU-16 (IC50 (nM))
# Description: In this assay, the growth inhibitory activity of a test substance in a human stomach cancer cell line harboring FGFR2 gene amplification is measured.
# Then, 10 μL of Cell Counting Kit-8 (Dojindo Laboratories, CK04) was added to each well, and the resultant was incubated for 1 to 2 hours in a 5% CO2 incubator (37° C.) to cause a color reaction. The absorbance value was measured with ENVISION™ (PerkinElmer Co., Ltd.) at 450 nm.
# FGFR1 protein = FGFR1 protein (Homo sapiens (Human), UniProt P11362); assay: biochemical
# [2] = tested on: normal human umbilical vein endothelial cells (HUVEC); assay: HUVEC growth inhibition assay (VEGF-induced); type: cell-based; details: Homo sapiens, HUVEC, 72 h; growth in the presence of VEGF 10 ng/mL, 3 days; read-out: HUVEC (IC50 (nM))
# Description: The absorbance value was measured with ENVISION™ (PerkinElmer Co., Ltd.) at 450 nm. The absorbance values of the wells without adding the test substance but with VEGF addition was defined as 100% and the absorbance values of the wells with neither the test substance nor VEGF addition was defined as 0%.
# [3] = tested on: human stomach cancer cell line SNU-16 xenograft; assay: Antitumor effect in SNU-16 subcutaneous xenograft model in mice; type: in vivo; details: oral, once a day for 11 days, tumor volume last day
# Source text: Human stomach cancer cell line SNU-16, which had been cultured in an RPMI-1640 medium containing 10% FBS, and penicillin and streptomycin, were adjusted to a concentration of 1×10^8 cells/mL with Hanks' Balanced Salt Solution (GIBCO #24020) to prepare a cell suspension, and the suspension was mixed with […] (BD Biosciences, Cat#354234) in a ratio of 1:1 to prepare a cell suspension in a concentration of 5×10^7 cells/ml. The cell suspension was inoculated in a volume of 100 ut into a subcutaneous part of a right flank of nude mice, 6 to 7 weeks of ages (BALB/cAiel-nu/nu, female, Clea Japan Inc.). Seven days after cell inoculation, the shortest diameter and the longest diameter of a tumor in each mouse were measured by using an electronic digital caliper (Digimatie™ caliper, Mitutoyo Corporation), so as to calculate the volume of the tumor in accordance with the following calculation formula: Tumor volume(mm^3)Longest diameter(mm)×Shortest diameter(mm)×Shortest diameter(mm)/2
# (§1) On the basis of the volumes of tumors obtained on the first day of administration, the nude mice were grouped such that averages of the tumor volumes were substantially equal among the groups. Each test substance was dissolved in DMSO, Tween 80 was added thereto to prepare a solution in a 10-fold concentration and the thus prepared solution was stored at the freezer before use. Immediately before the administration, the stock solution was diluted with a 5% glucose solution to obtain a final administration solution (in which a ratio in % among DMSO, Tween 80 and the 5% glucose solution was 3.5:6.5:90). Each evaluation sample was orally administered to test substance administration group at a volume of 0.4 mL per 20 g of body weight once a day continuously for 11 days, and in a control group, an administration solvent was orally administered under the same conditions. Incidentally, the experiment was conducted on groups each consisting of 5 mice.
# (§2) With respect to each of the control group and test substance administration group, a ratio of the weight measured on the final day to the weight measured on the first day (relative body weight: RBW) was calculated. If a ratio of the RBW of the test substance administration group/the RBW of the control group is 0.9 or mom, the corresponding test substance administration group was defined as a well-tolerated. In the test substance administration group thus defined as well-tolerated, a ratio of the tumor volume of the test substance-dosing group to the tumor volume of the control group obtained on the last day (TIC) (%) was calculated, and shown in Table 21.
# [4] = tested on: human lung cancer cell line NCI-H1581 xenograft; assay: Antitumor effect in NCI-H1581 subcutaneous xenograft model in mice; type: in vivo; details: oral, once a day for 11 days, tumor volume last day
# Description: Human lung cancer cell line NCI-H1581, which had been cultured in RPMI-1640 medium containing 10% FBS, and penicillin and streptomycin, were adjusted to a concentration of 1×10^8 cells/mL with Hanks' Balanced Salt Solution(GIBCO #24020) to prepare a cell suspension, and the suspension was mixed with […] in a ratio of 1:1 to prepare a cell suspension in a concentration of 5×10^7 cells/mL. The cell suspension was inoculated in a volume of 100 μL into a subcutaneous part of a right flank of each of nude mice, 6 to 7 weeks of ages (BALB/cAJcl-nu/nu, female, Clea Japan Inc.). Ten to 11 days after the cell inoculation, the shortest diameter and the longest diameter of a tumor in each mouse were measured by using an electronic digital caliper (Digimatic™ caliper, Mitutoyo Corporation), so as to calculate the volume of the tumor in accordance with the following calculation formula: Tumor volume(mm^3)=Longest diameter(mm)×Shortest diameter(mm)×Shortest diameter(mm)/2
# as §1
# as §2, with “more,” for “mom,”, “22.” for “21.”
# Chain of FGFR1 protein (P11362 22-822): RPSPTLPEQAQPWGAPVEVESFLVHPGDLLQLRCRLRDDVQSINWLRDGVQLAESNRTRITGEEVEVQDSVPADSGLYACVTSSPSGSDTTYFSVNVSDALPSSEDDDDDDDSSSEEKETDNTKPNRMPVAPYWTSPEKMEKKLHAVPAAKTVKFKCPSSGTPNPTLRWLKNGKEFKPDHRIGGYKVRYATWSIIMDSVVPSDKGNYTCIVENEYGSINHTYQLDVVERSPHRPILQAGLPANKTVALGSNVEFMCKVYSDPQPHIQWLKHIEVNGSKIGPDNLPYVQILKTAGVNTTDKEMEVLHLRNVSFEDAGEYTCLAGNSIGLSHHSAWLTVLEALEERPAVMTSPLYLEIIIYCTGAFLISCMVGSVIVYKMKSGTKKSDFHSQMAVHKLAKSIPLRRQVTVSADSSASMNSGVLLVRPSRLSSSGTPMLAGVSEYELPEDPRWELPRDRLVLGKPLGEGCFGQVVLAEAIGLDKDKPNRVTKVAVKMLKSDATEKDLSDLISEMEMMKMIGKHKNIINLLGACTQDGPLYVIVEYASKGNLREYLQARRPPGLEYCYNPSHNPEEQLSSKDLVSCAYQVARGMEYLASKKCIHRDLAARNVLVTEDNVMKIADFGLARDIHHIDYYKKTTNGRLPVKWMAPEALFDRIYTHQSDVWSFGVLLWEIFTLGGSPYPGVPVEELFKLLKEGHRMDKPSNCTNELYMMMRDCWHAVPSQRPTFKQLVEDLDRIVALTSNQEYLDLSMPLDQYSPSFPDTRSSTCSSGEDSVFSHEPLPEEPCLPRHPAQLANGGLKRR
IC50 [1],IC50 (FGFR1 protein),Structure (SMILES),IC50 [2],T/C (%) ([3]; 6.25 mg/kg),T/C (%) ([3]; 12.5 mg/kg),T/C (%) ([3]; 25 mg/kg),T/C (%) ([4]; 6.25 mg/kg),T/C (%) ([4]; 12.5 mg/kg),T/C (%) ([4]; 25 mg/kg),T/C (%) ([3]; 50 mg/kg),T/C (%) ([4]; 50 mg/kg)
7.5 nM,9.8 nM,"CNC(=O)n1ccc2cc(Oc3ccnc(NC(=O)c4ccc(C5CCNCC5)cc4)c3)c(OC)cc21 [Example 1, 6-Methoxy-N-methyl-5-((2-(4-(piperidin-4-yl)benzamide)pyridin-4-yl)oxy)-1H-indole-1-carboxamide]",98.7 nM,–,–,–,–,–,–,–,–
–,–,"CCN1CCC(c2ccc(C(=O)Nc3cc(Oc4cc5ccn(C(=O)NC)c5cc4OC)ccn3)cc2)CC1 [Example 2, 5-((2-(4-(1-Ethylpiperidin-4-yl)benzamide)pyridin-4-yl)oxy)-6-methoxy-N-methyl-1H-indole-1-carboxamide]",–,51%,28%,18%,36%,19%,11%,–,–
–,–,"CCOc1cc2c(ccn2C(=O)NC)cc1Oc1ccnc(NC(=O)c2ccc(C3CCN(CC)CC3)cc2)c1 [Example 16, 6-Ethoxy-5-((2-(4-(1-ethylpiperidin-4-yl)benzamide)pyridin-4-yl)oxy)-N-methyl-1H-indole-1-carboxamide]",–,39%,21%,15%,50%,25%,15%,–,–
–,–,"CNC(=O)n1ccc2cc(Oc3ccnc(NC(=O)c4ccc(C5CCN(C)CC5)cc4)c3)c(OCCOC)cc21 [Example 21, 6-(2-Methoxyethoxy)-N-methyl-5-((2-(4-(1-methylpiperidin-4-yl)benzamide)pyridin-4-yl)oxy)-1H-indole-1-carboxamide]",–,49%,26%,16%,36%,18%,10%,7%,6%
